Patent publication US20250188110A1, “SPECIFIC SMALL MOLECULE INHIBITORS THAT BLOCK KMT9 METHYLTRANSFERASE ACTIVITY AND FUNCTION” (ALBERT-LUDWIGS-UNIVERSITÄT FREIBURG, priority 2021, published 2025)

Tests used:
KMT9 [1] = molecular target: T1, KMT9 (Homo sapiens, UniProt Q9Y5N5); assay: Microscale thermophoresis (MST) KMT9 binding; conditions: microscale thermophoresis, His-tag labelled KMT9 (20 nM); read-out: MST
T1 sequence (Q9Y5N5 1-214): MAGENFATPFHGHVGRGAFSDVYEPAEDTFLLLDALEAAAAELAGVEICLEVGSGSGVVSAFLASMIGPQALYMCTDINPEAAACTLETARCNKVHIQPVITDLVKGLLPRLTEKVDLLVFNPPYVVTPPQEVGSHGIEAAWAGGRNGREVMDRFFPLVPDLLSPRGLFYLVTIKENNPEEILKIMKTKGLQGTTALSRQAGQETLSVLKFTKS
T1 sequence (Q9UI30 1-120 isoform Q9UI30-2 partner): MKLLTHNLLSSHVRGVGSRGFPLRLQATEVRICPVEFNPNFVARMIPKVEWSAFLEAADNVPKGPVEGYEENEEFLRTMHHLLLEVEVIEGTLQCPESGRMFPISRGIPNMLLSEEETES
Procedure, shortened: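 His-tagged KMT9 (20 nM), RED-Tris-NTA labelled, titrated with varying compound concentrations in 25 mM HEPES pH 7.5, 100 mM NaCl, 1 mM DTT, 0.05% Tween. MST at 40% MST and 100% LED power, Nano-RED excitation; Kd binned A ≤10 nM, B 10–100, C 100–1000, D >1000 nM.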

KMT9 [2] = molecular target: T1, KMT9; assay: KMT9 thermal shift assay (SyproOrange); assay type: binding; conditions: ΔTm; 500 µM compound, 2 μM KMT9, 5X SO; read-out: Thermal shift
Procedure, shortened: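 Recombinant KMT9 was incubated with compound and SyproOrange at 25° C in 50 mM BTP pH 8.5, 1 mM MgCl2, 1 mM DTT. It was then heated from 20° C to 95° C at 1° C per 15 s with fluorescence read each step. Tm came from a Boltzmann sigmoidal fit; ΔTm relative to DMSO control, binned in 5 K ranges.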

KMT9 [3] = molecular target: T1, KMT9; assay: KMT9 methyltransferase inhibition assay, 3H-SAM scintillation (entries 1-154); assay type: biochemical; conditions: entries 1-154: 3H-SAM assay, 25 nM KMT9, 5 μM ETF1
Procedure, shortened: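 Final 25 nM KMT9, 5 μM ETF1 (residues 140-275), 0.3 μM 3H-SAM plus 0.7 μM SAM in pH 8.5 BTP buffer, 2 h at 30° C. TCA-quenched, filter-washed, methylation counted by scintillation; % inhibition vs DMSO and no-enzyme controls, IC50 from four-parameter fit.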

SMILES	Kd (KMT9 [1]) [nM]	ΔTm at 500 µM (KMT9 [2]) [°C]	IC50 (KMT9 [3]) [µM]
CNc1ncnc2c1ccn2[C@@H]1C[C@H](CN(CCCNCCc2ccc3ccccc3c2)CC(F)(F)F)[C@@H](O)[C@H]1O [377 (281), (1R,2S,3R,5R)-3-(4-(methylamino)-7H-pyrrolo[2,3-d]pyrimidin-7-yl)-5-(((3-((2-(naphthalen-2-yl)ethyl)amino)propyl)(2,2,2-trifluoroethyl)amino)methyl) cyclopentane-1,2-diol]	> 1000	≤ 10	> 10
NC[C@H]1O[C@@H](n2cc3c4c(ncnc42)NCCC3)[C@H](O)[C@@H]1O [416 (287), (2R,3S,4R,5R)-2-(aminomethyl)-5-(6,7,8,9-tetrahydro-2H-2,3,5,6-tetraazabenzo[cd]azulen-2-yl) tetrahydrofuran-3,4-diol]	> 1000	≤ 10	> 10
CNCCC(=O)N(C)C[C@H]1C[C@@H](n2ccc3c(NC)ncnc32)[C@H](O)[C@@H]1O [417 (288), N-(((1R,2R,3S,4R)-2,3-dihydroxy-4-(4-(methylamino)-7H-pyrrolo[2,3-d]pyrimidin-7-yl)cyclopentyl)methyl)-N-methyl-3-(methylamino)propanamide]	> 1000	≤ 10	> 10
CNc1ncnc2c1ccn2[C@@H]1C[C@H](CNC(=O)C2CCCNC2)[C@@H](O)[C@H]1O (stereo partly drawn) [418 (289), N-(((1R,2R,3S,4R)-2,3-dihydroxy-4-(4-(methylamino)-7H-pyrrolo[2,3-d]pyrimidin-7-yl)cyclopentyl)methyl) piperidine-3-carboxamide]	> 1000	≤ 10	> 10
CNc1ncnc2c1ccn2[C@@H]1C[C@H](COCCNCCc2ccccc2)[C@@H](O)[C@H]1O [419 (290), (1R,2S,3R,5R)-3-[4-(Methylamino)pyrrolo[2,3-d]pyrimidin-7-yl]-5-({2-[(2-phenylethyl)amino]ethoxy}methyl) cyclopentane-1,2-diol]	> 1000	≤ 10	> 10
CNc1ncnc2c1ccn2[C@@H]1C[C@H](COCCCNCCc2ccccc2)[C@@H](O)[C@H]1O [420 (291), (1R,2S,3R,5R)-3-(4-(methylamino)-7H-pyrrolo[2,3-d]pyrimidin-7-yl)-5-((3-(phenethylamino)propoxy)methyl) cyclopentane-1,2-diol]	> 1000	≤ 10	> 10
CNc1ncnc2c1ccn2[C@@H]1C[C@H](COCCCNCCc2cccc(Oc3ccccc3)c2)[C@@H](O)[C@H]1O [421 (292), (1R,2S,3R,5R)-3-(4-(Methylamino)-7H-pyrrolo[2,3-d]pyrimidin-7-yl)-5-((3-((3-phenoxyphenethyl)amino)propoxy)methyl) cyclopentane-1,2-diol]	> 1000	≤ 10	> 10
CNc1ncnc2c1ccn2[C@@H]1C[C@H](/C=C/CCNCCc2ccccc2)[C@@H](O)[C@H]1O [422 (293), (1R,2S,3R,5R)-3-(4-(methylamino)-7H-pyrrolo[2,3-d]pyrimidin-7-yl)-5-((E)-4-(phenethylamino)but-1-en-1-yl) cyclopentane-1,2-diol]	> 1000	≤ 10	> 10
CNc1ncnc2c1ccn2[C@@H]1C[C@H](CCCCNCCc2ccccc2)[C@@H](O)[C@H]1O [423 (294), (1R,2S,3R,5S)-3-(4-(methylamino)-7H-pyrrolo[2,3-d]pyrimidin-7-yl)-5-(4-(phenethylamino)butyl) cyclopentane-1,2-diol]	> 1000	≤ 10	> 10
CNc1ncnc2c1ccn2[C@@H]1C[C@H](CCCCCNCCc2ccccc2)[C@@H](O)[C@H]1O [424 (295), (1R,2S,3R,5S)-3-(4-(Methylamino)-7H-pyrrolo[2,3-d]pyrimidin-7-yl)-5-(5-(phenethylamino)pentyl) cyclopentane-1,2-diol]	100 to 1000	10 to 15	1 to 10
CNc1ncnc2c1ccn2[C@@H]1C[C@H](/C=C/CCCNCCc2ccccc2)[C@@H](O)[C@H]1O [425 (296), (1R,2S,3R,5R)-3-(4-(methylamino)-7H-pyrrolo[2,3-d]pyrimidin-7-yl)-5-((E)-5-(phenethylamino)pent-1-en-1-yl) cyclopentane-1,2-diol]	> 1000	≤ 10	> 10
CNc1ncnc2c1ccn2[C@@H]1C[C@H](C#CCNCCc2ccccc2)[C@@H](O)[C@H]1O [426 (297), (1R,2S,3R,5R)-3-[4-(methylamino)pyrrolo[2,3-d]pyrimidin-7-yl]-5-{3-[(2-phenylethyl)amino]prop-1-yn-1-yl}cyclopentane-1,2-diol]	> 1000	≤ 10	> 10
CNc1ncnc2c1ccn2[C@@H]1C[C@H](CSCCCNCCc2ccccc2)[C@@H](O)[C@H]1O [427 (299), (1R,2S,3R,5S)-3-(4-(methylamino)-7H-pyrrolo[2,3-d]pyrimidin-7-yl)-5-(((3-(phenethylamino)propyl)thio)methyl) cyclopentane-1,2-diol]	> 1000	≤ 10	1 to 10
CNc1ncnc2c1ccn2[C@@H]1C[C@H](C[S+]([O-])CCCNCCc2ccccc2)[C@@H](O)[C@H]1O (stereo partly drawn) [428 (300), (1R,2S,3R,5S)-3-(4-(Methylamino)-7H-pyrrolo[2,3-d]pyrimidin-7-yl)-5-(((3-(phenethylamino)propyl)sulfinyl)methyl) cyclopentane-1,2-diol]	> 1000	≤ 10	> 10
CNc1ncnc2c1ccn2[C@@H]1C[C@H](CS(=O)(=O)CCCNCCc2ccccc2)[C@@H](O)[C@H]1O [429 (301), (1R,2S,3R,5S)-3-(4-(Methylamino)-7H-pyrrolo[2,3-d]pyrimidin-7-yl)-5-(((3-(phenethylamino)propyl)sulfonyl)methyl) cyclopentane-1,2-diol]	> 1000	≤ 10	> 10
CNc1ncnc2c1ccn2[C@@H]1C[C@H](CSCCN)[C@@H](O)[C@H]1O [430 (302), (1S,2R,3S,5R)-3-(((2-Aminoethyl)thio)methyl)-5-(4-(methylamino)-7H-pyrrolo[2,3-d]pyrimidin-7-yl) cyclopentane-1,2-diol]	> 1000	≤ 10	> 10
CNc1ncnc2c1ccn2[C@@H]1C[C@H](CSCCNCCc2ccccc2)[C@@H](O)[C@H]1O [431 (303), (1R,2S,3R,5S)-3-(4-(Methylamino)-7H-pyrrolo[2,3-d]pyrimidin-7-yl)-5-(((2-(phenethylamino)ethyl)thio)methyl) cyclopentane-1,2-diol]	> 1000	≤ 10	> 10
CNc1ncnc2c1ccn2[C@@H]1C[C@H](C[S+]([O-])CCNCCc2ccccc2)[C@@H](O)[C@H]1O (stereo partly drawn) [432 (304), (1R,2S,3R,5S)-3-(4-(Methylamino)-7H-pyrrolo[2,3-d]pyrimidin-7-yl)-5-(((2-(phenethylamino)ethyl)sulfinyl)methyl) cyclopentane-1,2-diol]	> 1000	≤ 10	> 10
CNc1ncnc2c1ccn2[C@@H]1C[C@H](CS(=O)(=O)CCNCCc2ccccc2)[C@@H](O)[C@H]1O [433 (305), (1R,2S,3R,5S)-3-(4-(Methylamino)-7H-pyrrolo[2,3-d]pyrimidin-7-yl)-5-(((2-(phenethylamino)ethyl)sulfonyl)methyl) cyclopentane-1,2-diol]	> 1000	≤ 10	> 10
CNc1ncnc2c1ccn2[C@@H]1C[C@H](CNC[C@H]2CCCNC2)[C@@H](O)[C@H]1O [436 (308), (1R,2S,3R,5R)-3-[4-(Methylamino)pyrrolo[2,3-d]pyrimidin-7-yl]-5-({[(3S)-piperidin-3-ylmethyl]amino}methyl) cyclopentane-1,2-diol]	> 1000	≤ 10	> 10
CNc1ncnc2c1ccn2[C@@H]1C[C@H](CN(CCCN)c2cncs2)[C@@H](O)[C@H]1O [437 (309), (1S,2R,3R,5R)-3-{[(3-Aminopropyl)(1,3-thiazol-5-yl)amino]methyl}-5-[4-(methylamino)pyrrolo[2,3-d]pyrimidin-7-yl]cyclopentane-1,2-diol]	> 1000	≤ 10	1 to 10
CNc1ncnc2c1ccn2[C@@H]1C[C@H](CN(C[C@H]2CCCNC2)c2cncs2)[C@@H](O)[C@H]1O [438 (310), (1R,2S,3R,5R)-3-[4-(Methylamino)pyrrolo[2,3-d]pyrimidin-7-yl]-5-({[(3S)-piperidin-3-ylmethyl](1,3-thiazol-5-yl)amino}methyl) cyclopentane-1,2-diol]	> 1000	≤ 10	> 10
